Measured values: PMC5107945, “Abscinazole-E3M, a practical inhibitor of abscisic acid 8′-hydroxylase for improving drought tolerance” (Scientific Reports, 2016)
pIC50, pKi: −log10 of the molar value. Where two headings read alike, the source gives them in different places.

How the values were obtained:
[1] = target: T1, Rice recombinant CYP701A6 (ent-kaurene oxidase) (Oryza sativa subsp. japonica, UniProt Q5Z5R4); experiment: CYP701A6 inhibition assay (formation of end product KA); format: biochemical
T1 construct: made in house; host or cells: insect cells (baculovirus vector)
T1 sequence (Q5Z5R4 1-505): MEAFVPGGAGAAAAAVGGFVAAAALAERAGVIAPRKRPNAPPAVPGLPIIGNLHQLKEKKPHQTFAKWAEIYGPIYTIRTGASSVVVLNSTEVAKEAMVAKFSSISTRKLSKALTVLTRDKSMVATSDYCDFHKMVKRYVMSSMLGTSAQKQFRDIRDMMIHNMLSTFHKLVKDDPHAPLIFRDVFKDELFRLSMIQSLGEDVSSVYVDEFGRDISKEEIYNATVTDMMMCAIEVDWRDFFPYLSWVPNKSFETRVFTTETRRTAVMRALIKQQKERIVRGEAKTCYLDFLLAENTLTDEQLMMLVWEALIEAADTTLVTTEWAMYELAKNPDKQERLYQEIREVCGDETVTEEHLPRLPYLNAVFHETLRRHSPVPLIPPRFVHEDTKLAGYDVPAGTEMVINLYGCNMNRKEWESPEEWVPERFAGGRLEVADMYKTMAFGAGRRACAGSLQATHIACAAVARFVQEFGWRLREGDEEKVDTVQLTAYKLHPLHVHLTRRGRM
Protocol: To evaluate the enzymatic selectivity between CYP707A and CYP701A, we examined the inhibitory activity against recombinant rice containing CYP701A6 expressed in insect cells using a baculovirus vector. This enzyme catalyses all three steps to KA via the corresponding alcohol and aldehyde, and consequently, the kinetic analysis is very complicated. Therefore, we evaluate the IC50 value for the formation of the end product, KA, instead of the KI value.
Reaction mixtures, containing 0.058 μM of […] microsomes, ATR2 (0.115 U), ent-kaurene (final concentration of 10 μM), inhibitors (0 for control, 1.5–1,500 μM in 8 μL dimethylformamide), and 20 mM NADPH in 500 mM potassium phosphate buffer (pH 7.4), were incubated at 30 °C for 10 min. Reactions were initiated by adding NADPH and stopped by the addition of 100 μL of 1 M HCl. Abietic acid, as the internal standard, was then added to the reaction product, which was extracted with EtOAc (400 μL × 3). The organic phase was dried over Na2SO4 and concentrated in vacuo. To derivatize the reaction products, MeOH (50 μL) and trimethylsilyldiazomethane (2 M in 5 μL hexane) were added, and the reaction mixture was incubated at room temperature for 10 min. The organic solvent was removed under N2, and samples were adjusted to 150 μL with hexane before a gas chromatography-mass spectrometry analysis (QP2010-plus; Shimadzu Corp., Kyoto, Japan). The conditions were as follows: the column was DB-5ms (0.25 mm id × 15 m, 0.25 μm film thickness; Agilent J & W, Folsom, CA, USA), the carrier gas was He, the flow rate was 1.65 mL min^−1, the injection port temperature was 280 °C, splitless injection, and the programmed column temperature was a step gradient of 80 °C for 1 min, 80–200 °C at 18 °C min^−1, 200–210 °C at 2 °C min^−1, 210–280 °C at 30 °C min^−1, and then 280 °C for 3 min. The KA content was calculated from the area ratio of molecular and fragment ions of methyl KA (m/z 316, 273, and 257) to those of methyl abietate (m/z 316 and 256). The inhibition ratio was defined as [(A − B)/A] × 100, where A = the amount of methyl KA/methyl abietate when the inhibitor was absent from the reaction mixture (control), and B = the amount of methyl KA/methyl abietate when the inhibitor was present. All of the tests were conducted at least three times.

rice seedling growth = experiment: Rice seedling elongation assay; format: in vivo, Oryza sativa L. cv. Nipponbare; details: 0.3 μM; 7 d
Protocol: The effects of (−)-Abz-T compounds were also tested on the early growth of rice seedlings to investigate whether the plant growth-retardant effect derived from UNI declined. […] This was the same trend observed for (−)-Abz-E2B[26]. […] Thus, the growth-retardant effects of (−)-Abz-T compounds may arise from an increase in the endogenous ABA level due to the CYP707A inhibition, although we cannot exclude the possibility that Abz-T compounds may inhibit off-target enzymes other than CYP707A and CYP701A.
Figure 4 Effects of (−)-Abz-T compounds on rice seedling growth compared with the effects of UNI and (−)-Abz-E2B. Seedlings grown on test media containing indicated concentrations of azole inhibitors for 7 d. Scale bars represent 10 mm. Compound 6 is also referred to as Abz-E3M.
For the rice seedling elongation assay, seven seeds (Oryza sativa L. cv. Nipponbare) were sterilised with reagent-grade EtOH for 5 min and washed with running tap water. They were then soaked in distilled water and incubated under continuous illumination at 25 °C for 3 d to germinate. The germinated seeds were then soaked in 2 mL of a test medium in a glass tube and grown under continuous illumination at 25 °C. When the seedlings were 7 d old, the length of the second leaf sheath was measured. All of the assays were conducted at least three times.

[2] = target: T2, Arabidopsis recombinant CYP707A3 (ABA 8′-hydroxylase) (Arabidopsis thaliana, UniProt Q9FH76); experiment: CYP707A3 inhibition assay (decrease of enzymatic product PA); format: biochemical; details: Arabidopsis recombinant CYP707A3 expressed in E. coli; for pIC50: 5 μM ABA as substrate, read-out: CYP707A IC50
T2 construct: made in house; host or cells: Escherichia coli (microsomal/membrane fraction)
T2 sequence (Q9FH76 1-463): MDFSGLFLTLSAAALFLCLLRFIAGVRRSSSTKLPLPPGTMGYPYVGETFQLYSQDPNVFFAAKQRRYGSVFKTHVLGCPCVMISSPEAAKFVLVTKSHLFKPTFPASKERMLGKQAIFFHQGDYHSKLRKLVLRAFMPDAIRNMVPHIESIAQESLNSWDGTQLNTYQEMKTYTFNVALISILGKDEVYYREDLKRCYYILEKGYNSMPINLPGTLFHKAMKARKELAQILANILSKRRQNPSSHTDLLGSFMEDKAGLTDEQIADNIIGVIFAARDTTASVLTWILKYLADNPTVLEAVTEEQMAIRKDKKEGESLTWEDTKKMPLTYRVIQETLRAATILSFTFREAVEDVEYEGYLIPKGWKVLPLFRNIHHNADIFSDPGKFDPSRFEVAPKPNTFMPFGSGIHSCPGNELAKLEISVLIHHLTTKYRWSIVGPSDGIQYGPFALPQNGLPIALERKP
Protocol: The inhibitory activities of Abz-T compounds against ABA 8′-hydroxylase were examined using recombinant Arabidopsis CYP707A3 co-expressed with Arabidopsis P-450 reductase (ATR1) in Escherichia coli[22]. The activity levels were evaluated based on the decrease in the amount of the enzymatic product, PA.
Reactions were initiated by adding NADPH, stopped by the addition of 25 μL of 1 M NaOH and then acidified with 50 μL of 1 M HCl. Reaction products were extracted by loading the mixture onto an Oasis HLB cartridge (1 mL, 30 mg; Waters Corp., Milford, MA, USA) and were washed with 1 mL of 10% MeOH in H2O (v/v) containing 1% acetic acid (AcOH, v/v). The enzyme products were then eluted with 1 mL of MeOH containing 1% AcOH, and the eluate was concentrated in vacuo. Each dried sample was then dissolved in 50 μL of MeOH, and a 20-μL volume was subjected to HPLC (Prominence; Shimadzu Corp., Kyoto, Japan). HPLC conditions were as follows: the octadecylsilyl column was composed of Hydrosphere C18 (150 × 6.0 mm, YMC Co., Ltd., Kyoto, Japan), and the solvent comprised 17% acetonitrile (MeCN) in H2O containing 0.05% AcOH (v/v). The flow rate was 1.0 mL min^−1, and detection was at 254 nm. Enzyme activity was evaluated by determining the amount of PA in control experiments prior to taking each set of measurements. The inhibition constants were determined using the Enzyme Kinetics module of the SigmaPlot 10 software (Systat Software, Inc., San Jose, CA, USA) after determining the inhibition mode by plotting the reaction velocity in the presence and absence of the inhibitor on a double-reciprocal plot. The inhibition ratio was defined as [(A − B)/A] × 100, where A = the amount of PA when the inhibitor was absent from the reaction mixture (control), and B = the amount of PA when the inhibitor was present. All of the tests were conducted at least three times.

[3] = test system: ABA-responsive genes MAPKKK18, RD29A and RD29B; experiment: qRT-PCR of ABA-responsive genes in Arabidopsis seedlings; format: in vivo, Arabidopsis (Columbia accession); details: 10-day-old seedlings, 6 h
Protocol: Figure 5 Effects of (−)-Abz-E3M on the expression levels of Arabidopsis ABA-responsive genes. Expression of MAPKKK18, RD29A and RD29B after treatment with (−)-Abz-E2B or (−)-Abz-E3M in the absence or presence of 0.25 μM ABA (n = 4, error bar represents s.d.).
Arabidopsis (Columbia accession) were grown for 10 d on agar plates containing 1/2 Murashige and Skoog (MS) and 0.5% sucrose at 22 °C under an 18/6-h light/dark cycle. Seedlings were incubated in the chemical solutions for 6 h. Total RNA from seedlings was isolated using the Plant RNA purification reagent (Thermo Fisher Scientific) according to the manufacturer’s instructions. cDNA was synthesised using the QuantiTec reverse transcription kit (Qiagen). Maize (cv. Gold rush, Sakata Seed Corporation) seedlings were grown in 100-mL pots containing 75 g of moist soil in a glass house. The root parts of the maize seedlings were washed with tap water and dipped in 100 μM (−)-Abz-E3M chemical solution containing 0.05% Tween-20 overnight. Total RNA from maize seedlings was isolated using an RNeasy mini kit (Qiagen) with the ‘on-column’ DNA digestion method. cDNA was synthesised using a High-Capacity cDNA Reverse Transcription Kit (Thermo Fisher Scientific). Real-time PCR using SYBR Premix Ex Taq™ II (Takara) was performed with Step One-Plus (Thermo Fisher Scientific). The primer sets are shown in Supplemental Table S1.

[4] = Rice recombinant CYP701A6 expressed in insect cells, 10 μM ent-kaurene, formation of KA, read-out: CYP701A IC50

| Compound | pIC50 [1] | Effect on elongation of rice seedlings (rice seedling growth) | pIC50 [2] | pIC50 [1, 4] | pKi ([2]; ABA 1–64 μM, read-out: CYP707A KI) | Expression of ABA-responsive genes MAPKKK18, RD29A and RD29B ([3]; absence of exogenous ABA) | Expression of ABA-responsive genes MAPKKK18, RD29A and RD29B ([3]; co-treatment with 0.25 μM ABA) |
| --- | --- | --- | --- | --- | --- | --- | --- |
| CC(C)(C)[C@H](O)/C(=C\c1ccc(Cl)cc1)n1cncn1 [UNI, S-uniconazole, reference compound] | 7.24 | strongly inhibited the elongation of rice seedlings | – | – | – | – | – |
| abscinazole-E2B [(+)-Abz-E2B, reference compound] | – | – | 5.96 | 5.89 | – | – | – |
| abscinazole-E2B [(−)-Abz-E2B, reference compound] | – | – | 7.27 | 5.92 | 7.42 | did not induce the expression | enhanced the expression levels of ABA-responsive genes |
| abscinazole-E3M [(+)-6] | – | – | 5.92 | 5.80 | – | – | – |
